Results: ChEMBL document CHEMBL5104197, “Structure-Based Optimization of Coumestan Derivatives as Polyketide Synthase 13-Thioesterase(Pks13-TE) Inhibitors with Improved hERG Profiles for Mycobacterium tuberculosis Treatment” (J Med Chem, 2022)
In brackets after ≈: the same amount, converted by molar mass. Activity calls are given as the source filed them. The rule behind the calls is not given here.

Legend:
[1] = tested on: Mycobacterium tuberculosis; assay: microbe, parasite or virus in culture; details: H37Rv, 168 h
[2] = Cytotoxicity against African green monkey Vero cells; type: toxicity, cell-based, Chlorocebus sabaeus
[3] = Metabolic stability in human liver microsomes assessed as compound remaining measured after 60 mins by LC-MS/MS analysis; type: ADME, Microsome; details: read-out: Stability
[4] = tested on: Mycobacterium tuberculosis; type: functional, organism-based; details: H37Rv, dose 100.0 mg/kg, route po, time 7.0 day
[5] = Metabolic stability in human liver microsomes assessed as microsomal intrinsic clearance measured after 60 mins by LC-MS/MS analysis; type: ADME, Microsome; details: read-out: CLH
[6] = Metabolic stability in human liver microsomes assessed as half-life measured after 60 mins by LC-MS/MS analysis; type: ADME, Microsome
[7] = tested on: Mycobacterium tuberculosis; type: functional, organism-based; details: H37Rv, dose 100.0 mg/kg, route po, time 7.0 day; remark: listed apart in the source
[8] = tested on: Mycobacterium tuberculosis; assay: Binding affinity to wild type Mycobacterium tuberculosis Pks13-TE N1640 expressed in Escherichia coli BL21(DE3) pLysS assessed as change in melting temperature at 1:10 compound to protein ratio by nanoDSF thermal stability analysis
[9] = tested on: Mycobacterium tuberculosis; assay: Binding affinity to wild type Mycobacterium tuberculosis Pks13-TE N1640 expressed in Escherichia coli BL21(DE3) pLysS assessed as change in melting temperature at 1:5 compound to protein ratio by nanoDSF thermal stability analysis
[10] = tested on: Mycobacterium tuberculosis; type: functional, Vero; details: V4207, 168 h, time 7 day
[11] = Selectivity index, ratio of CC50 for African green monkey Vero cells to MIC90 for Mycobacterium tuberculosis H37Rv; type: toxicity; details: read-out: Selectivity Index
[12] = Metabolic stability in human liver microsomes assessed as liver intrinsic clearance measured after 60 mins by LC-MS/MS analysis; type: ADME, Microsome; details: read-out: CLH

Compound	MIC90 [1]	also measured
COC(=O)c1c(NC(=O)c2c(F)c(F)c(F)c(F)c2F)sc2c1CCCCC2		MIC [1]: 1 µM (≈ 0.419 µg/mL)
O=c1oc2cc(O)ccc2c2oc3ccc(O)c(CN4CCC(F)(F)CC4)c3c12	1 µg/mL (≈ 2.49 µM)	
O=c1oc2cc(O)ccc2c2oc3ccc(O)c(CN4CC[C@H](F)C4)c3c12	0.125 µg/mL (≈ 0.338 µM)	
CC(C)CCN1COc2ccc3oc4c5ccc(O)cc5oc(=O)c4c3c2C1	0.0625 µg/mL (≈ 0.165 µM)	
O=c1oc2cc(O)ccc2c2oc3ccc4c(c3c12)CN(C1CCCC1)CO4	0.0039 µg/mL (≈ 0.0103 µM)	IC50 [2]: 0.125 µg/mL (≈ 0.331 µM); remaining at 1 h [3]: 80.9%; Activity [4]: Active; CLint scaled [5]: < 9.6 mL/min/kg; half-life [6]: > 2.42 h; Activity [7]: Active; ΔTm [8]: 8.4 °C; ΔTm [9]: 8.1 °C; MIC90 [10]: 0.0078 µg/mL (≈ 0.0207 µM); selectivity ratio [11]: 32
O=C(c1c(O)ccc2oc3c4ccc(O)cc4oc(=O)c3c12)N1CCCCC1	> 64 µg/mL	
O=c1oc2cc(O)ccc2c2oc3ccc(O)c(CN4CCC(F)CC4)c3c12	0.0625 µg/mL (≈ 0.163 µM)	IC50 [2]: 4 µg/mL (≈ 10.4 µM); remaining at 1 h [3]: 47.4%; Activity [4]: Active; CLint scaled [12]: 21 mL/min/kg; CLint scaled [5]: 23.5 mL/min/kg; half-life [6]: 0.992 h; Activity [7]: Active; ΔTm [8]: 7.6 °C; ΔTm [9]: 8.8 °C; MIC90 [10]: 0.125 µg/mL (≈ 0.326 µM)
O=c1oc2cc(O)ccc2c2oc3ccc(O)c(CN4CC[C@@H](F)C4)c3c12	0.5 µg/mL (≈ 1.35 µM)	
COc1ccc2c(c1)oc(=O)c1c2oc2ccc(O)c(CN3CCC(F)(F)C3)c21	> 64 µg/mL	
CC1(C)CCN(Cc2c(O)ccc3oc4c5ccc(O)cc5oc(=O)c4c23)CC1	0.25 µg/mL (≈ 0.635 µM)	
O=c1oc2cc(O)ccc2c2oc3ccc(O)c(CNC4CCCC4)c3c12	0.0039 µg/mL (≈ 0.0107 µM)	
CO[C@H]1/C=C/O[C@@]2(C)Oc3c(C)c(O)c4c(O)c(c(/C=N/N5CCN(C)CC5)c(O)c4c3C2=O)NC(=O)/C(C)=C\C=C\[C@H](C)[C@H](O)[C@@H](C)[C@@H](O)[C@@H](C)[C@H](OC(C)=O)[C@@H]1C [RIFAMPIN]	0.125 µg/mL (≈ 0.152 µM)	
O=c1oc2cc(O)ccc2c2oc3ccc4c(c3c12)CN(CC1CC1)CO4	0.0625 µg/mL (≈ 0.172 µM)	ΔTm [8]: 5.3 °C; ΔTm [9]: 5.4 °C
CC(C)CCNCc1c(O)ccc2oc3c4ccc(O)cc4oc(=O)c3c12	0.125 µg/mL (≈ 0.34 µM)	
COc1ccc2c(c1)oc(=O)c1c2oc2ccc(O)c(CN3CCC(F)(F)CC3)c21	> 64 µg/mL	
CC[C@@H](CO)NCCN[C@@H](CC)CO [ETHAMBUTOL]	1 µg/mL (≈ 4.89 µM)	
O=c1oc2cc(O)ccc2c2oc3ccc(O)c(CN4CCCCC4)c3c12	0.0039 µg/mL (≈ 0.0107 µM)	CLint scaled [12]: 10.4 mL/min/kg; CLint scaled [5]: 11.5 mL/min/kg; half-life [6]: 2 h; ΔTm [8]: 7.2 °C; ΔTm [9]: 7 °C
O=c1oc2cc(O)ccc2c2oc3ccc(O)c(CN4CCCC(F)(F)C4)c3c12	> 64 µg/mL	
O=c1oc2cc(O)ccc2c2oc3ccc(O)c(CN4CCCC(F)C4)c3c12 (stereo unspecified)	0.25 µg/mL (≈ 0.652 µM)	
O=c1oc2cc(O)ccc2c2oc3ccc(O)c(CNC4CCCCC4)c3c12	0.25 µg/mL (≈ 0.659 µM)	
O=c1oc2cc(O)ccc2c2oc3ccc(O)c(CN4CCC5(CC4)CC5)c3c12	0.25 µg/mL (≈ 0.639 µM)	
O=c1oc2cc(O)ccc2c2oc3ccc4c(c3c12)CN(C1CC1)CO4	0.125 µg/mL (≈ 0.358 µM)	
O=c1oc2cc(O)ccc2c2oc3ccc(O)c(CN4CCC(Br)CC4)c3c12	0.125 µg/mL (≈ 0.281 µM)	
O=c1oc2cc(O)ccc2c2oc3ccc(O)c(CN4CCC(F)(F)C4)c3c12	> 64 µg/mL	
O=c1oc2cc(O)ccc2c2oc3ccc(O)c(CNCc4ccccc4)c3c12	1 µg/mL (≈ 2.58 µM)	
NNC(=O)c1ccncc1 [ISONIAZID]	0.04 µg/mL (≈ 0.292 µM)	
COc1ccc2c(c1)oc(=O)c1c2oc2ccc(O)c(CN3CCC(Br)CC3)c21	> 64 µg/mL	
O=C1CCCCN1Cc1c(O)ccc2oc3c4ccc(O)cc4oc(=O)c3c12	> 64 µg/mL	
COc1ccc2c(c1)oc(=O)c1c2oc2ccc(O)c(CN3CCC(C)(C)CC3)c21	8 µg/mL (≈ 19.6 µM)	
